Test results: patent US10183011B2, “Anti-depression compounds” (Board of Regents of the University of Texas System, priority 2009, dated 2019)

Experiments:
[1] = system: SNc dopaminergic neurons; assay: MPTP-toxicity to SNc dopaminergic neurons, treatment started 24 hours after the last MPTP dose; assay type: in vivo, mouse (C57Bl/6); conditions: for dopaminergic axons in the striatum (TH staining): 20 mg/kg/day
Protocol: FIG. 29A and FIG. 29B. Neuroprotective efficacy of P7C3 and P7C3A20 from MPTP-toxicity to SNc dopaminergic neurons. FIG. 29A—Test compounds were evaluated by dose response assay for their ability to block MPTP-neurotoxicity in the SNc. […] VEH group contained 30 animals: 15 animals that received the P7C3A20/P7C3 vehicle, and 15 animals that received Dimebon vehicle (saline). […] Representative immunohistochemical pictures of TH-staining in the SNc are shown below the graph. Dosing is expressed as total mg/day, and was administered intraperitoneally in divided doses twice daily. Data are expressed as mean±SEM. […] P7C3A20 does so with greater effect, and Dimebon offers no protection. Striatal sections were obtained from the same mice used in FIG. 2, and compound treatment groups are from mice that received a dose of 20 mg/kg/d.
We compared the protective efficacy of our agents in the Tatton and Kish model of MPTP administration, which induces prolonged apoptotic death of SNc dopaminergic neurons lasting about 3 weeks after a short course of daily MPTP administration. Mice were treated daily for 5 days with 30 mg/kg/day free base MPTP. On the sixth day, 24 hours after receiving the fifth and final dose of MPTP, daily treatment with P7C3, P7C3A20, Dimebon or vehicle was initiated. […] Dose-response studies were conducted in which mice received twice daily doses of each compound (or vehicle) for the ensuing 21 days (FIG. 29A). […] At the end of the 21 day treatment period, mice were sacrificed by transcardial perfusion with 4% paraformaldehyde, and fixed brains were sectioned through the striatum and SNc at 30 μM intervals. Every fourth section (spaced 120 μM apart) was stained with antibodies specific to tyrosine hydroxylase (TH) (Abcam, rabbit anti-TH, 1:2500). The TH enzyme catalyzes the conversion of the amino acid L-tyrosine to L-3,4-dihydroxyphenylalanine (L-DOPA), which serves as the precursor for dopamine. TH staining thus provides a means to immunohistochemically identify dopaminergic neurons. By counting the number of TH+ cells in the SNc, we were able to assess the neuroprotective efficacy of the three chemicals following MPTP exposure. All microscopic analysis was performed by two investigators, blind to treatment group.
15 adult male C57Bl/6 mice were individually housed for one week and then injected daily for 5 days with 30 mg/kg/day (i.p.) free base MPTP (Sigma). On day 6, 24 hours after receiving the fifth and final dose of MPTP, daily treatment with P7C3, P7C3A20, Dimebon or vehicle was initiated. Mice were housed in disposable caging, and protective gear and precautions were implemented for handling MPTP in accordance with UT Southwestern Medical Center policy. Dose response studies were conducted in which mice received twice daily doses of each compound (or vehicle) by intraperitoneal injection for the following 21 days, after which mice were sacrificed by transcardial perfusion with 4% paraformaldehyde. Brains were dissected, fixed overnight in 4% paraformaldehyde, and cryoprotected in sucrose for freezing by standard procedures. Frozen brains were sectioned through the striatum and SNc at 30 uM intervals, and every fourth section (spaced 120 μM apart) was stained with antibodies directed against tyrosine hydroxylase (TH) (Abcam, rabbit anti-TH, 1:2500). Diaminobenzidine was used as a chromagen, and tissue was counter-stained with hematoxylin to aid in visualization of the neuroanatomy. Images were analyzed with a Nikon Eclipse 90i motorized research microscope with Plan Apo lenses coupled with Metamorph Image Acquisition software (Nikon). TH+ neurons were counted with Image J software (NIH) in every section by 2 blinded investigators and results were averaged and multiplied by the sectioning interval to determine the total number of TH+ neurons per SNc.

[2] = system: G93A-SOD1 mutant mice; assay: Accelerating rotarod test in G93A-SOD1 mice, treatment from day 80; assay type: in vivo, mouse; conditions: 20 mg/kg/day i.p. from day 80
Protocol: FIG. 35. P7C3A20 preserves performance in the accelerating rotarod test when administered at the time of disease onset to G93A-SOD1 mutant mice. Treatment of G93A-SOD1 mutant mice with 20 mg/kg/d of P7C3A20, P7C3 or Dimebon, or the appropriate vehicle, was initiated on day 80, with 20 mice per group. All compounds were administered at 20 mg/kg/day i.p. in divided doses. […] Only sibling pairs were analyzed at each time point. By week 16, there were 13 compound-vehicle pairs remaining in each group. […] All testing and analysis was performed blind to treatment group.
Having observed evidence of compound-mediated protection of spinal cord motor neurons, we next sought to determine whether motor performance might also be protected in these mice. Motor performance was monitored by the accelerating rotarod task standardly employed for evaluation of rodent models of ALS. We again initiated administration of P7C3, P7C3A20 or Dimebon on day 80, at 20 mg/kg/day, starting with no less than 20 mice per treatment group. Each animal in each group had its own sibling-matched vehicle control, and testing was conducted blind to treatment group. Rotarod training was initiated on day 50 for 2 days, and repeated weekly testing was conducted every 7 days thereafter. Each mouse was subjected to four trials of 600 seconds each, with a 20 minute recovery break between each trial. The latency time to fall was averaged across all 4 trials.
Beginning on day 50, mice were trained on the accelerating rotarod using Colombia Instruments Rotamex-5. Training consisted of mice being placed on a rotarod moving at 5 rpm for 300 seconds. Mice were trained to stay on the rotarod for the entire 300 seconds. If a mouse fell, it was placed back on the rotarod and the 300 second trial was started again. Training took place on two consecutive days. On day 52, mice ran their first full rotarod test, as described in Current Protocols for Neuroscience. The rotarod began at 4 rpm and accelerated to 40 rpm over 600 seconds, increasing by 1.25 rpm every 20 seconds. The time to fall was automatically recorded. […]

[3] = Plasma, brain and spinal cord levels in G93A-SOD1 study (LC/MS/MS); assay type: in vivo, mouse; conditions: 20 mg/kg/day for 21 days; for spinal cord accumulation relative to other compound: six hours after last injection
Protocol: FIG. 37. Plasma, brain and spinal cord levels of P7C3A20, P7C3 and Dimebon. Five mice for each compound group were treated for 21 days with 20 mg/kg/day of the compound, starting on day 85. Blood, brain and spinal cord were harvested six hours after the last injection and compound levels were measured by LC/MS/MS. Concentrations are presented as mean±SEM.

Row | SMILES | dopaminergic axons in the striatum (TH staining) [1] | protection from MPTP ([1]; any dose) | accelerating rotarod performance [2] | entry into brain and spinal cord [3] | spinal cord accumulation relative to other compound [3] | activity in the MPTP protection assay ([1]; new analogs, 10 mice for each compound) | onset of efficacy, over VEH ([1]; 1 mg/kg/day for 21 days) | number of dopaminergic neurons in the SNc relative to normal mice not exposed to MPTP ([1]; 20 mg/kg/day for 21 days) | enhanced survival of TH+ SNc neurons over VEH ([1]; 5 mg/kg/day for 21 days) | protection relative to vehicle ([1]; 20 mg/kg/day for 21 days)
1 | Cc1ccc2c(c1)c1c(n2CCc2ccc(C)nc2)CCN(C)C1 [Dimebon, 2,3,4,5-Tetrahydro-2,8-dimethyl-5-(2-(6-methyl-3-pyridyl)ethyl)-1H-pyrido(4,3-b)indole, reference compound] | offered no protection of dopaminergic axons in the striatum | failed to confer any measurable degree of protection from MPTP at any dose | insufficiently active to preserve motor function | able to enter both the brain and spinal cord | comparable levels of spinal cord accumulation to P7C3A20 |  |  |  |  | 
2 | OC(CNc1cccc2ccccc12)Cn1c2ccc(Cl)cc2c2cc(Cl)ccc21 (centres unmarked) [Example P7C3-S184] |  |  |  |  |  | inactive in both in vivo assays |  |  |  | 
3 | COc1cccc(NCC(F)Cn2c3ccc(Br)cc3c3cc(Br)ccc32)c1 (centres unmarked) [Example P7C3A20, N-(3-(3,6-dibromo-9H-carbazol-9-yl)-2-fluoropropyl)-3-methoxyaniline] | almost completely blocked depletion of dopaminergic axons in the striatum |  | showed significantly better performance | able to enter both the brain and spinal cord | less than one-twentieth the concentration of P7C3 |  | 30% | about 85% |  | 
4 | OC(CNc1ccccc1)Cn1c2ccc(Br)cc2c2cc(Br)ccc21 (centres unmarked) [Example P7C3] | qualitatively notable protection |  | insufficiently active to preserve motor function | able to enter both the brain and spinal cord |  |  |  |  | about 40% | ~60%
